Drawing on BindingDB's records for doi:10.1021/jm801627a (Vernalis (R&D), 2009), this text covers IC50 for one compound.

Molecules are shown by their SMILES.

The test has as its target Heat shock 70 kDa protein 1A (Homo sapiens, UniProt P0DMV8). The experiment in a line: HSP70 Fluorescence Polarization Assay. The note with it: pH 7.4; 23 °C. Here is the method: A fluorescein-labeled ATP-based probe was utilized, which binds to the GST fused ATPase domain (amino acids 3-383) of HSP70, producing an increase in mP. The presence of a compound which competitively binds to the same site as the probe would lead to decreased mP values, by increasing the amount of free probe. Compounds were tested as 10-point IC50s. Assay mixtures were incubated for three hours prior to reading on the Fusion (ex 485 nm; em 535 nm). The data was fitted using a 4 parameter logistical data model by XLFit 4 (IDBS).
On the technique in general: In fluorescence polarisation assays a small probe gives low polarisation when free and higher when bound to something large.

Heat shock 70 kDa protein 1A, sequence (P0DMV8 whole entry, the tested form may be a part): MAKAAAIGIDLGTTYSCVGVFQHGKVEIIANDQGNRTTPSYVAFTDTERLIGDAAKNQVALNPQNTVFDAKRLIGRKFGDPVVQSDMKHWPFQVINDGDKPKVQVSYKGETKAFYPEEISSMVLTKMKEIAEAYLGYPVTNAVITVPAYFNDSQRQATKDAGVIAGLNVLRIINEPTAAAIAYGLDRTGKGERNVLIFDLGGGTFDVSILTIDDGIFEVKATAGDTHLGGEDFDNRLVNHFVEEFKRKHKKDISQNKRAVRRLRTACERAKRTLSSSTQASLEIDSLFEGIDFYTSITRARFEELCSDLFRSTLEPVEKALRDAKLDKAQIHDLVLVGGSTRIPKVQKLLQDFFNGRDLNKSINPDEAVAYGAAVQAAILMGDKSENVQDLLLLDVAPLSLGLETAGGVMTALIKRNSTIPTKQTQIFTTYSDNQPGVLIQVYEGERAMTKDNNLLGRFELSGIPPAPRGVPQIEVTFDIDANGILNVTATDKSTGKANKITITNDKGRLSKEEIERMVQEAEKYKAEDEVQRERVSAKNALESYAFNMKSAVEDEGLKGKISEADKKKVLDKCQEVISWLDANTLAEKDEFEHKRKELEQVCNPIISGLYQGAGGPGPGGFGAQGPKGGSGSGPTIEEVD

As usually defined, the IC50 is the concentration needed to halve the response being measured. A higher IC50 goes with weaker potency in that assay. With `Nc1ncnc2c1nc(NCc1ccc3ncccc3c1)n2[C@@H]1O[C@H](COCc2cc(F)c(F)c(F)c2)[C@@H](O)[C@H]1O` [adenosine-derived inhibitor, 17], the IC50 is less than 400 nM.
